Assay results: patent US9212153B2, “Inhibitors of beta-secretase” (Vitae Pharmaceuticals, Inc., priority 2009, dated 2015)

The compounds below were run against truncated human beta-secretase (residues 1-458, His6-tagged at the C-terminus) (Homo sapiens (Human), UniProt P56817) (assay: BACE enzyme assay (fluorescence quench, Example 434A)). Conditions: not given.
Type: biochemical

Sequence of truncated human beta-secretase (residues 1-458, His6-tagged at the C-terminus) (P56817 22-458): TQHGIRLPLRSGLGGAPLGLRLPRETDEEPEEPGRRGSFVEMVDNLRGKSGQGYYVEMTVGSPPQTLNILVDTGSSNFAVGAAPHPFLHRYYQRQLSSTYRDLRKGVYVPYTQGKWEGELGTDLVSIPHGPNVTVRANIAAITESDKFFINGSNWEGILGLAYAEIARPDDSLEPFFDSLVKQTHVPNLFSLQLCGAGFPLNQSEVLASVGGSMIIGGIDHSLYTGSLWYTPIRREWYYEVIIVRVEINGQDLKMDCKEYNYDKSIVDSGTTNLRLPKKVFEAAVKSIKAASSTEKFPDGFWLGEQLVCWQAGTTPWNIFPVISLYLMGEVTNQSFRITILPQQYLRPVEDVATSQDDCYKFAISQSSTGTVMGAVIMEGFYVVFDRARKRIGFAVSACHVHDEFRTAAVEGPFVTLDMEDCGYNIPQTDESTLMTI

SMILES | IC50 [nM]
COC1CCC2(CC1)Cc1ccc(-c3cccnn3)cc1C21N=C(N)N(C)O1 (stereo not drawn) [Compound 107] | 228
CN1OC2(N=C1N)c1cc(Br)ccc1C[C@@]21C[C@@H]1c1ccccc1 (stereo partly drawn) [Compound 460] | 9810

Same assay, conditions: footnote a: determined according to protocols described in Example 434A

SMILES | IC50 [nM] | IC50 (nM) [l^a]
CN1OC2(N=C1N)c1cc(-c3cccc(C#N)c3)ccc1CC21CCS(=O)(=O)CC1 (stereo not drawn) [Compound 459] | 693 | –
Cc1onc2c1CC1(CC2)Cc2ccc(Br)cc2C12N=C(N)N(C)C2=O (stereo not drawn) [Compound 461] | 16.7 | –
COC1CCC2(CC1)Cc1ccc(C3=CC(O)CC3)cc1C21N=C(N)N(C)C1=O (stereo not drawn) [Compound 476] | – | 33.
COC1CCC2(CC1)Cc1ccc(C#CC3CC3)cc1C21C=C(N)N(C)O1 (stereo not drawn) [Compound 3] | 4.5 | –

More lines, now with the values ahead:

IC50 [nM] | IC50 (nM) [l^a] | SMILES
293 | – | CN1OC2(C=C1N)c1cc(-c3cccc(C#N)c3)ccc1CC21CCCc2ccccc2C1 (stereo not drawn) [Compound 46]
138 | – | CN1OC2(N=C1N)c1cc(Br)ccc1CC21CCc2ccccc2CC1 (stereo not drawn) [Compound 67]
870 | – | CN1C(=O)C2(N=C1N)c1cc(-c3cccc(C#N)c3)ccc1CC21Cc2cnncc2C1 (stereo not drawn) [Compound 471]

The compounds below were run against BACE (Homo sapiens (Human), UniProt P56817) (assay: BACE cell assay (H4-APPsw cells, secreted Aβ 1-40 by AlphaLISA/ELISA)). Conditions: in vitro cell activity.
Type: cell-based

Sequence of BACE (P56817 46-501 limits assumed): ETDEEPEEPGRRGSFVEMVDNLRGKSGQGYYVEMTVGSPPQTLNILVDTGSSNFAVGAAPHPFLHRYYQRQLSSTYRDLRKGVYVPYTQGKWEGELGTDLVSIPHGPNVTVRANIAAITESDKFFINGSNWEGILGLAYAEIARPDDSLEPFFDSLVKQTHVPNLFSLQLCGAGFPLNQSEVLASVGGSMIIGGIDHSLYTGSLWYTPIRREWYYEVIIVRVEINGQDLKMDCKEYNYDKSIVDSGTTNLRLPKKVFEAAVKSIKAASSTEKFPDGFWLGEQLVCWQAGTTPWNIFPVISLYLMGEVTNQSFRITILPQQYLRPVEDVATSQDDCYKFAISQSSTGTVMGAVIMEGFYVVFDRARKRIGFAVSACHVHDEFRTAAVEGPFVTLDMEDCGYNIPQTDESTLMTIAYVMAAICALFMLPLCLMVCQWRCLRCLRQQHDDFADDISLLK

IC50 [nM] | SMILES
< 10000 | CN1OC2(C=C1N)c1cc(-c3cccc(C#N)c3)ccc1CC21CCCc2ccccc2C1 (stereo not drawn) [Compound 46]
< 100 | COC1CCC2(CC1)Cc1ccc(C#CC3CC3)cc1C21C=C(N)N(C)O1 (stereo not drawn) [Compound 3]
< 1000 | CCOC1(F)CCC2(CC1)Cc1ccc(-c3cccc(C#N)c3)cc1C21N=C(N)N(C)O1 (stereo not drawn) [compound 49]
